Measurements taken from patent US20100004125A1 (priority 2007, published 2010).
Where two headings read alike, the source gives them in different places.

Test system: Pyricularia oryzae
Assay type: cell-based

Row | SMILES | Efficacy (%) | Efficacy (%) (single compound, Conc 2 ppm, micro titer plate, 405 nm, 7 days after inoculation)
1 | CN/C(=N\[N+](=O)[O-])NCc1cnc(Cl)s1 [Chlothianidin, (E)-1-(2-chloro-1,3-thiazol-5-ylmethyl)-3-methyl-2-nitroguanidine] | 8 | –
2 | CC1(C)CC/C(=C\c2ccc(Cl)cc2)C1(O)Cn1cncn1 (single isomer, unassigned; (+)) [Triticonazol, (+) E-5-(4-chlorobenzylidene)-2,2-dimethyl-1-(1H-1,2,4-triazol-1-ylmethyl)cyclopentanol] | – | 44
